We go through four molecules from patent US8664269B2, “Nitroglycerin therapy for those unable to metabolize nitroglycerin” (Duke University, priority 2005, dated 2014).

For assay [1], the system named is patient with congestive heart failure. Nature of the assay: Example II: GTN therapy of congestive heart failure, patient. It is filed as in vivo, human. How it is done:
A patient has congestive heart failure manifested by pulmonary congestion and low ventricular function. Treatment by infusion with GTN (100 mcg/min) has no effect. Infusion of GTN (100 mcg/min) is continued along with infusion of N-acetylcysteine at 50 mg/kg every 6 hours. After 10 minutes time, pulmonary congestion attenuates and ventricular function improves.

Assay [2] concerns patient with Type 1 diabetes on insulin regimen who develops angina. Nature of the assay: Example III: GTN therapy of angina, Type 1 diabetes patient on insulin regimen. It is filed as in vivo, human.
Assay [3] has as its system patient with heart attack (myocardial infarction). Nature of the assay: Example V: myocardial infarction, patient. The format is in vivo, human. Conditions: IV GTN alone. The text has this:
A patient has a heart attack (myocardial infarction).

Assay [4] deals with alcoholic with chronic obstructive pulmonary disease. As to the kind of experiment: Example VIII: obstructive lung disease in an alcoholic, shortness of breath. It is filed as in vivo, human. The text has this: A alcoholic with obstructive lung disease (chronic obstructive pulmonary disease) has shortness of breath.
Assay [5] deals with person with high blood pressure. Nature of the assay: Example VII: high blood pressure. The format is in vivo, human. Conditions: 50 mg/min IV GTN alone; 200 mmHg systolic. As to the method: A person has high blood pressure (200 mmHg systolic). […] Administration of Composition V (50 mg/ml and NAC 75 mg/ml) at 1 ml/min causes blood pressure to fall to 160 mmHg.
The test system of assay [6] is alcoholic patient who develops angina. As to the kind of experiment: Example IV: GTN therapy of angina in an alcoholic. The settings on record: for resolution of angina: 600 mg P.O. (TID) with sublingual GTN (0.4 mg). It is filed as in vivo, human. From the text:
A alcoholic needs to imbibe alcohol to avoid withdrawal symptoms. The patient develops angina. Sublingual GTN ([…]) has no effect.

The subject of assay [7] is alcoholic with restenosis and chest pain. Nature of the assay: Example VI: restenosis and chest pain in an alcoholic. It is filed as in vivo, human. The text has this:
A alcoholic has restenosis and chest pain.

Assay [8] deals with patient with persistent angina. As to the kind of experiment: Example I: GTN therapy of persistent angina, patient. The format is in vivo, human. How it is done: A patient has persistent angina. Treatment by infusion with GTN 100 mcg/min has no effect. Infusion of nitroglycerin 100 mcg/min is continued along with infusion of N-acetylcysteine at 50 mg/kg every six hours.
The subject of assay [9] is patients receiving continuous GTN. Conditions: intravenous NAC, short term studies; cited from earlier work.
Assay [10] deals with Patient with interstitial lung disease (pulmonary fibrosis). Nature of the assay: Example X: interstitial lung disease (pulmonary fibrosis), patient. It is filed as in vivo, human. Conditions: nebulized GTN (10 micromolar) together with nebulized NAC (1 millimolar); patient on prednisone therapy. From the text:
A patient with interstitial lung disease (pulmonary fibrosis) experiences shortness of breath despite being on prednisone therapy.

The test system of a further assay is Patient with asthma. Nature of the assay: Example IX: asthma, patient, shortness of breath. The settings on record: nebulized combination of GTN (100 micromolar) and NAC (dose of I millimolar). It is filed as in vivo, human. From the text: A patient with asthma experiences shortness of breath.
The mark [11] stands for this setting: infusion of GTN 100 mcg/min alone.
Where [12] appears, read: infusion of N-acetylcysteine 50 mg/kg every 6 hours along with infusion of GTN 100 mcg/min.
Setting [13] is: infusion of N-acetylcysteine 50 mg/kg every six hours along with infusion of nitroglycerin 100 mcg/min.

`O=[N+]([O-])OCC(CO[N+](=O)[O-])O[N+](=O)[O-]` [GTN, nitroglycerin]: the “effect on congestive heart failure (pulmonary congestion, low ventricular function)” value in [1] (setting [11]) was “no effect”. Moreover, the effect on angina result in assay [2] (sublingual GTN (0.4 mcg) alone) and in assay [6] (sublingual GTN (0.4 mcg) alone) was “no effect” in each case. In addition, in assay [3], the “response of myocardial infarction patient” value is on record as “does not respond”. The shortness of breath result in assay [4] (nebulized GTN at a dose of 100 micromolar alone) is recorded as “does not cause improvement”. For the same molecule, the “response of high blood pressure” value in [5] is “does not respond”. Further, the chest pain entry in [7] (sublingual GTN 0.5 mg alone) is reported as “does not relieve chest pain”. Moreover, the “effect on persistent angina” value in [8] (setting [11]) was “no effect”.
`CC(=O)N[C@@H](CS)C(=O)O` [N-acetylcysteine]: the pulmonary congestion result in assay [1] (setting [12]) is recorded as “attenuates”. Further, the “time until pulmonary congestion attenuates and ventricular function improves” value in [1] (setting [12]) worked out at 10 min. The ventricular function result in assay [1] (setting [12]) is on record as “improves”. Moreover, the results for the resolution of angina entry in assay [2] (N-acetylcysteine 600 mg P.O. TID along with sublingual GTN (0.4 mg)), in assay [6] and in [8] (setting [13]) were “causes the angina to resolve”, “resolution of the angina” and “the angina is resolved”, respectively. Moreover, the GTN tolerance entry in assay [9] was “reverse GTN tolerance”. Further, the shortness of breath result is “causes improvement” in assay [4] (nebulized combination of GTN (100 micromolar) and NAC (1 millimolar)); “causes improvement” in assay [10]; “causes improvement” with Patient with asthma. The chest pain entry in [7] (oral NAC (300 mg) supplementing sublingual GTN 0.5 mg) is “chest pain is relieved”. For the same molecule, the “time until angina is resolved” value in [8] (setting [13]) was 3 min.
In the case of `O=C1O[C@H]([C@@H](O)CO)C(O)=C1O` [Vitamin C, ascorbic acid], in [2] (Vitamin C 10,000 mg/day P.O. along with sublingual GTN (0.4 mg)), the resolution of angina result is reported as “causes the angina to resolve”. Besides, in assay [7] (oral vitamin C (10,000 mg/day P.O.) supplementing sublingual GTN 0.5 mg), the chest pain entry is listed as “chest pain is relieved”.
In the case of `N[C@@H](CCC(=O)N[C@@H](CS)C(=O)NCC(=O)O)C(=O)O` [glutathione], the resolution of angina result in [6] is “resolution of the angina”. For the same molecule, the chest pain result in [7] (glutathione 60 mg P.O. (T.I.D.) supplementing sublingual GTN 0.5 mg) is listed as “chest pain is relieved”.
